pIC50: −log10 of the molar value. Read-outs that look alike come from different tables or passages of the source. Values belong to the compound of their own block, whether it stands above or below them.
Experiments:
SKBR3 cells = assay: Cellular growth inhibition (sulforhodamine B); type: cell-based, Human; details: Table 3; for pIC50: Homo sapiens, SK-BR-3
A431 cells = assay: Cellular growth inhibition (sulforhodamine B); details: for pIC50: Homo sapiens
SW620 cells = assay: Cellular growth inhibition (sulforhodamine B); type: cell-based, Human; details: Table 3; for pIC50: Homo sapiens, SW-620
erbB4 = erbB4 (Homo sapiens, UniProt Q15303); assay: Isolated enzyme inhibition (Invitrogen Z′-LYTE kinase assay); type: biochemical; details: 10 μM ATP, duplicate
Experimental: (§1) The compounds of Table 1 were tested for their ability to inhibit erbB1, erbB1^T790M, erbB2 and erbB4 in an isolated enzyme assay. This assay utilises synthetic FRET-capable peptide substrates. Phosphorylation of these substrates protects them from cleavage by a development reagent, leaving their FRET-capabilities intact. […] As a further consideration, for compounds capable of irreversible inhibition of an enzyme, the IC50 reflects both reversible and irreversible binding to the enzyme.

erbB2 = erbB2 (Homo sapiens, UniProt P04626); assay: as above; type: biochemical; details: 10 μM ATP, duplicate
Experimental: as §1

erbB1 = erbB1 (Homo sapiens, UniProt P00533); assay: Inhibition of erbB1 autophosphorylation in EGF-stimulated intact A431 cells (Western blot)
[1] = Pulse radiolysis (E(1) and fragmentation rate); type: physicochemical; details: for kfrag. (fragmentation rate constant upon 1-electron reduction): benzyl-type radical formation; for E (1)/V (one-electron reduction potential): determined against methylviologen
Experimental: (§2) Pulse radiolysis was used to monitor the 1-electron reduction and stability of the compounds in real time. A linear accelerator delivering short pulses of high energy electrons (2-3 Gy in 200 ns of 4 MeV) equipped with a fast spectophotometric detection system was used. (Anderson et al, J. Phys. Chem. A, 101, 9704-9709, 1997). […] The rate of fragmentation was determined by analysing kinetic transients at wavelengths corresponding to the formation of the benzyl-type radical of the trigger moiety. (Bays et al, J. Am. Chem. Soc., 105, 320-324, 1983; Anderson et al, J. Phys. Chem. A, 101, 9704-9709, 1997).
The pulse radiolysis method, for example, measures the equilibrium constant between the radical anions of the prodrugs, formed upon their 1-electron reduction, and reference standards such as viologen and quinone compounds, from which data the E(1) values of the compounds can be calculated. (Meisel and Czapski. J. Phys. Chem., 1975, 79, 1503-1509.) The E(1) values of prodrugs 17-22, 140-145 were measured by the pulse radiolysis method and determined to range between −0.493V and −0.388V (Table 4).
The rate constants for fragmentation, kfrag, of the 1-electron reduced prodrugs can be measured using pulse radiolysis to observe the time-resolved formation of the absorption spectrum of the benzyl-type radical produced upon fragmentation of the radical anion. (Anderson et al, J. Phys. Chem. A, 1997, 101, 9704-9709.) The kfrag values of prodrugs 19, 20, 140, 141 and 143-145 were measured by pulse radiolysis and are presented in Table 4.
as §2, with “one-electron” for “1-electron”, “prodrug 42” for “the compounds”, “used.” for “used. (Anderson et al, J. Phys. Chem. A, 101, 9704-9709, 1997).”, “1997.)” for “1997).”

H1975 cells = assay: Cellular growth inhibition (sulforhodamine B); type: cell-based, Human; details: for pIC50: Homo sapiens, NCI-H1975
SKOV3 cells = assay: Cellular growth inhibition (sulforhodamine B); type: cell-based, Human; details: Table 9; for pIC50: Homo sapiens, SK-OV-3
[2] = Chemical stability by HPLC; details: HPLC after 24 h at 37° C.
H1975 xenografts = assay: In vivo efficacy in H1975 xenografts; design: species or system mice; details: H1975 xenografts, q3dx4 at respective MTD, IP
Experimental: Specific pathogen-free homozygous female NIH-III nude mice (Charles River Laboratories, Wilmington, Mass.) were inoculated subcutaneously with a single cell suspension of H1975 cells (5×10^6 cells/100 μL; right flank). When H1975 tumour xenografts were established (typically 8-12 days) mice were randomized to treatment groups. All compounds were prepared in lactate buffer (pH4). Mice were dosed by intraperitoneal injection (0.01-0.03 ml/g) using the stated schedules and dose levels. For growth delay experiments mice were randomized to treatment and tumor volume [π(length×width^2)/6] and body weight were measured daily following treatment. […] Differences in RTV^4 were tested for statistical difference by Mann Whitney U test using SigmaStat v3.5.

[3] = Steady state radiolytic reduction by the CO2.− radical with HPLC-MS; type: physicochemical; details: for Detection of MNA (methyl nitroaromatic) / release of effector following 1-electron reduction: HPLC-MS; for % Loss of prodrug: HPLC-MS at 0.95 reducing equivalents; for release of effector following 1-electron reduction: steady state radiolysis
HT29 cells = assay: Cellular growth inhibition (sulforhodamine B); type: cell-based, Human; details: Table 7; for pIC50: Homo sapiens, HT-29
[4] = 24 hour exposure entirely oxic, read-out: Cellular Growth Inhibition IC50 SKBR3 Oxic
[5] = first 4 hours anoxic, read-out: Cellular Growth Inhibition IC50 SKBR3 Anoxic
[6] = A-431, 24 h, read-out: Cellular Growth Inhibition IC50 A431 Oxic
[7] = A-431, read-out: Cellular Growth Inhibition IC50 A431 Anoxic
[8] = 24 hour exposure entirely oxic, read-out: Cellular Growth Inhibition IC50 SW620 Oxic
[9] = first 4 hours anoxic, read-out: Cellular Growth Inhibition IC50 SW620 Anoxic
[10] = Table 9, 24 hour exposure oxic, read-out: Cellular Growth Inhibition IC50 H1975 Oxic
[11] = Table 9, first 4 hours anoxic, read-out: Cellular Growth Inhibition IC50 H1975 Anoxic
[12] = 24 hour exposure oxic, read-out: Cellular Growth Inhibition IC50 SKOV3 Oxic
[13] = first 4 hours anoxic, read-out: Cellular Growth Inhibition IC50 SKOV3 Anoxic
[14] = A-431, 4 h, read-out: Cellular Growth Inhibition IC50 A431 Anoxic
[15] = Table 7, 24 hour exposure oxic, read-out: Cellular Growth Inhibition IC50 H1975 Oxic
[16] = Table 7, initial 4 hours anoxic, read-out: Cellular Growth Inhibition IC50 H1975 Anoxic
[17] = 24 hour exposure oxic, read-out: Cellular Growth Inhibition IC50 HT29 Oxic
[18] = initial 4 hours anoxic, read-out: Cellular Growth Inhibition IC50 HT29 Anoxic

erbB1, sequence (P00533 25-1210): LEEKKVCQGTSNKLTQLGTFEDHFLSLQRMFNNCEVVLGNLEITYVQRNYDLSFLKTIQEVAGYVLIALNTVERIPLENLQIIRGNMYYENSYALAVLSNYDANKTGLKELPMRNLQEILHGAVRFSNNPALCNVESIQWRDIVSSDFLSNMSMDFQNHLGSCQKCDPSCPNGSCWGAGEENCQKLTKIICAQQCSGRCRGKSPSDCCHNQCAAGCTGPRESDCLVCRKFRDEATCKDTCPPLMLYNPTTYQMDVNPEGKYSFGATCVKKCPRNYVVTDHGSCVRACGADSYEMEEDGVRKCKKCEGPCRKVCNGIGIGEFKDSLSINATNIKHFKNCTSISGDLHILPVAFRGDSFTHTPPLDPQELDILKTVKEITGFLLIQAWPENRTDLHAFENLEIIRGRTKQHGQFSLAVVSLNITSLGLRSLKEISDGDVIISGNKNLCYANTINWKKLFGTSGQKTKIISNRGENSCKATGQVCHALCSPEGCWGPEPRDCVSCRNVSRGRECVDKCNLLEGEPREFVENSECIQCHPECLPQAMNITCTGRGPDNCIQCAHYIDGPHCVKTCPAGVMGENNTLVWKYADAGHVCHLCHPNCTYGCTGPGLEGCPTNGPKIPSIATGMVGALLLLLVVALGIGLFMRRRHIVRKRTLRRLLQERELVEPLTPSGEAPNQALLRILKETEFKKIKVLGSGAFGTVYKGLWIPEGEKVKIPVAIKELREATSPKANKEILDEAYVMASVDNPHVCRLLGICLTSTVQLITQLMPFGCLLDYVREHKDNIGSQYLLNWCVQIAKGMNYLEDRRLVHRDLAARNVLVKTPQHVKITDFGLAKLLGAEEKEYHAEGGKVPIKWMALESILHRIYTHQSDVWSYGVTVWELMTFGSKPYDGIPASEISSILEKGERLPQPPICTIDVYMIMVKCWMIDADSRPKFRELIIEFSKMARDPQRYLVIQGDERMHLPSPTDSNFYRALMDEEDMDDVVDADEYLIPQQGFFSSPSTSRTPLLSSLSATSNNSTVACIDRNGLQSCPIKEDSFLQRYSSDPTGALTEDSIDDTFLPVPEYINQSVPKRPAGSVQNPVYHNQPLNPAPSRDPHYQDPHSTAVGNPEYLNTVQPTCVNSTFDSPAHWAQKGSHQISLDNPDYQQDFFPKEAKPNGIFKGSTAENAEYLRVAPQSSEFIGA
erbB2, sequence (P04626 23-1255): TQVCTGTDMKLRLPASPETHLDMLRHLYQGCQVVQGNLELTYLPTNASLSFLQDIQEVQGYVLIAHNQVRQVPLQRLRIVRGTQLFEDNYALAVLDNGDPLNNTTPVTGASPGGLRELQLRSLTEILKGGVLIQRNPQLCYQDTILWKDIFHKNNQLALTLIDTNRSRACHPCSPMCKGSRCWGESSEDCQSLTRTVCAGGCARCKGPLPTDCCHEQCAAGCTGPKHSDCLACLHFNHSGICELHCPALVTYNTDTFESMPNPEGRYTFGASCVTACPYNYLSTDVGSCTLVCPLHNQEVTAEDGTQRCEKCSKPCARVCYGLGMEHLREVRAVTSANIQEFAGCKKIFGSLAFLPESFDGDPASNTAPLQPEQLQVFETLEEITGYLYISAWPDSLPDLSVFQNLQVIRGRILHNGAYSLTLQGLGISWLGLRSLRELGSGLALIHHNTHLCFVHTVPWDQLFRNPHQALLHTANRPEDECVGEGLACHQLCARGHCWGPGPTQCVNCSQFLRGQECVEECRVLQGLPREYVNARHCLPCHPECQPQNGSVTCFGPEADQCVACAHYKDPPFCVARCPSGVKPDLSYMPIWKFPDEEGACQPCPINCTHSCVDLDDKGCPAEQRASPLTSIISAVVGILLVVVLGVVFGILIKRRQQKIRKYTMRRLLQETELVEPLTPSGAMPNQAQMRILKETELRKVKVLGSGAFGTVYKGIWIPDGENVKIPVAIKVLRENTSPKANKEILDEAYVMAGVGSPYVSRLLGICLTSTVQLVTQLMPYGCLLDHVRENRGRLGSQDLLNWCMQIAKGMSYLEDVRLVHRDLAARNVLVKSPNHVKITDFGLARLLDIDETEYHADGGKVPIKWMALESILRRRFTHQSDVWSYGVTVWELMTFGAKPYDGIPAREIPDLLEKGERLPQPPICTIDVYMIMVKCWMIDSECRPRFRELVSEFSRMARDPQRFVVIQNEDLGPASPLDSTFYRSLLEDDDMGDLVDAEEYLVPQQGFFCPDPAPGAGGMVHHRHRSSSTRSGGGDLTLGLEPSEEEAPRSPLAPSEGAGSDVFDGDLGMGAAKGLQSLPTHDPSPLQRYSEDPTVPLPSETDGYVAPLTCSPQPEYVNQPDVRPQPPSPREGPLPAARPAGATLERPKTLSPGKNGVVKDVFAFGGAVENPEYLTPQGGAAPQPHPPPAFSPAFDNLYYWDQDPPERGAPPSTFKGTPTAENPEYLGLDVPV
erbB4, sequence (Q15303 26-1308): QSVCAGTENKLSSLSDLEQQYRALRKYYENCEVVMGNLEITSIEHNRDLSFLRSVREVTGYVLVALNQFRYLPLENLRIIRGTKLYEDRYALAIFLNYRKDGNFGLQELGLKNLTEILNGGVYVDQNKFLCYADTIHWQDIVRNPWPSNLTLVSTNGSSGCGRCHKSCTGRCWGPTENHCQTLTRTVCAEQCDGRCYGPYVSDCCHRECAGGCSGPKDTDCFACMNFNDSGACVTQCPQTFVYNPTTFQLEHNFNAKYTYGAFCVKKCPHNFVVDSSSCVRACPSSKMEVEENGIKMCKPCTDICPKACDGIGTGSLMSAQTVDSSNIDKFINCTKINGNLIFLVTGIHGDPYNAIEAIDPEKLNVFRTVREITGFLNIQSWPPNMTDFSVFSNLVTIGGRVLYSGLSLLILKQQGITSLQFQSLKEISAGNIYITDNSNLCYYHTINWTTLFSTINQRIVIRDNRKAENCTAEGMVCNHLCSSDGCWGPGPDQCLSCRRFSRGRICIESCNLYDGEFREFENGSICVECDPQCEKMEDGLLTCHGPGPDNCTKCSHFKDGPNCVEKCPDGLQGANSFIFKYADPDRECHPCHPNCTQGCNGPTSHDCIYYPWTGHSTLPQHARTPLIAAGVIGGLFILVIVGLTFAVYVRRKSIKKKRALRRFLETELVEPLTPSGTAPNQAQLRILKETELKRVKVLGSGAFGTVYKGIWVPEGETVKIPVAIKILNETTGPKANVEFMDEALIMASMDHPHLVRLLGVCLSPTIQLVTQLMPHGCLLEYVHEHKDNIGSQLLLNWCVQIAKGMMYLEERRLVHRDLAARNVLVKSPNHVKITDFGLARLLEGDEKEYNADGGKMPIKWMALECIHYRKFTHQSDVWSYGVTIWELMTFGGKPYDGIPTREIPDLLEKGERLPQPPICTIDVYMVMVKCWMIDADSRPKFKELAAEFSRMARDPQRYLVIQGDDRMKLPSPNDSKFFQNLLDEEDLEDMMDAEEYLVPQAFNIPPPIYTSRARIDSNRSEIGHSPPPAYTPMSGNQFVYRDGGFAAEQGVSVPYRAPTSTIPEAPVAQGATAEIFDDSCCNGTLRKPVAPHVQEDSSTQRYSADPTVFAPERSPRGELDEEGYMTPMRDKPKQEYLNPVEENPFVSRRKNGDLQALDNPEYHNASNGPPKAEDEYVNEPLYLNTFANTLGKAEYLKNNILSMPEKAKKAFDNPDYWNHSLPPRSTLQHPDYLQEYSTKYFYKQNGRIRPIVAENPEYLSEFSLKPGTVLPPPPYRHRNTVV

SMILES: COc1cc2ncnc(Nc3ccc(F)c(Cl)c3)c2cc1NC(=O)/C=C/CN(C)C [Compound 14, (2E)-N-[4-(3-chloro-4-fluoroanilino)-7-methoxy-6-quinazolinyl]-4-(dimethylamino)-2-butenamide]
- pIC50 (SKBR3 cells; [4]): 7.55
- pIC50 (SKBR3 cells; [5]): 7.57
- SKBR3 HCR (SKBR3 cells): 1.1 fold
- pIC50 (A431 cells; [6]): 7.82
- pIC50 (A431 cells; [7]): 8.05
- A431 HCR (Hypoxic Cytotoxicity Ratio) (A431 cells; Table 3): 1.7 fold
- melting point: 179 to 181 °C
- pIC50 (SW620 cells; [8]): 5.69
- pIC50 (SW620 cells; [9]): 5.61
- SW620 HCR (SW620 cells): 0.8 fold

SMILES: Cn1cnc([N+](=O)[O-])c1C[N+]1(C/C=C/C(=O)Nc2ccc3ncnc(Nc4cccc(Br)c4)c3c2)CCCCC1.[Br-] [Compound 23, 1-((2E)-4-{[4-(3-bromoanilino)-6-quinazolinyl]amino}-4-oxo-2-butenyl)-1-[(1-methyl-4-nitro-1H-imidazol-5-yl)methyl]piperidinium bromide]
- pIC50 (erbB1): 5.92
- Deact. (fold reduction in cellular erbB1 inhibition relative to the parent kinase inhibitor) (erbB1; Table 2, A431 cells): 27 fold
- kfrag. (fragmentation rate constant upon 1-electron reduction) [1]: 420 ± 60 s⁻¹
- E (1)/V (one-electron reduction potential) [1]: −0.427 V
- pIC50 (SKBR3 cells; [4]): 5.61
- pIC50 (SKBR3 cells; [5]): 7.17
- SKBR3 Deact. (SKBR3 cells): 56 fold
- SKBR3 HCR (SKBR3 cells): 36.1 fold
- pIC50 (A431 cells; [6]): 6.17
- pIC50 (A431 cells; [7]): 7.60
- A431 Deact. (fold reduction in oxic growth inhibition relative to parent kinase inhibitor) (A431 cells; Table 3): 65 fold
- A431 HCR (Hypoxic Cytotoxicity Ratio) (A431 cells; Table 3): 26.9 fold
- melting point: 188 °C (dec.)
- pIC50 (SW620 cells; [8]): 4.00
- pIC50 (SW620 cells; [9]): 4.86
- SW620 Deact. (SW620 cells): 27 fold
- SW620 HCR (SW620 cells): 7.3 fold

SMILES: Cn1cnc([N+](=O)[O-])c1C[N+](C)(C)C/C=C/C(=O)Nc1cc2c(Nc3ccc(F)c(C(F)(F)F)c3)ncnc2cn1 [Compound 50, (2E)-4-({4-[4-fluoro-3-(trifluoromethyl)anilino]pyrido[3,4-d]pyrimidin-6-yl}amino)-N,N-dimethyl-N-[(1-methyl-4-nitro-1H-imidazol-5-yl)methyl]-4-oxo-2-buten-1-ammonium bromide]
- pIC50 (H1975 cells; [10]): 3.92
- pIC50 (H1975 cells; [11]): 5.42
- H1975 Deact. (H1975 cells; Table 9): 70 fold
- H1975 HCR (H1975 cells; Table 9): 43.5 fold
- pIC50 (erbB1): 6.01
- Deact. erbB1 (fold reduction in cellular inhibition relative to the parent kinase inhibitor) (erbB1; Table 8, A431 cells): 121 fold
- pIC50 (SKOV3 cells; [12]): 3.90
- pIC50 (SKOV3 cells; [13]): 5.32
- SKOV3 Deact. (SKOV3 cells): 126 fold
- SKOV3 HCR (SKOV3 cells): 28.7 fold
- pIC50 (A431 cells; [14]): 6.60
- pIC50 (A431 cells; [6]): 4.82
- A431 Deact. (A431 cells; Table 9): 64 fold
- A431 HCR (A431 cells; Table 9): 65.8 fold
- Stability PBS (percentage parent remaining) [2]: 88%
- Stability Water (percentage parent remaining) [2]: 99%
- Stability α-MEM + FCS (5%) (percentage parent remaining) [2]: 64%
- tumour growth inhibition (TGI) (H1975 xenografts): 114%
- solubility (physchem; aqueous buffer): 72 µM
- solubility (physchem; water): > 1300 µM

More lines, in order of rising pIC50 (A431 cells; [6]), values ahead:

- pIC50 (H1975 cells; [15]): 3.67
- pIC50 (H1975 cells; [16]): < 4.00
- Detection of MNA (methyl nitroaromatic) [3]: No
- % Loss of prodrug [3]: 8%
- E (1)/V (one-electron reduction potential) [1]: −0.471 V
- pIC50 (A431 cells; [14]): < 4.00
- pIC50 (A431 cells; [6]): 3.26
- melting point: 252 °C (dec.)
- pIC50 (HT29 cells; [17]): 3.81
- pIC50 (HT29 cells; [18]): 3.92
SMILES: Cn1cnc([N+](=O)[O-])c1C[n+]1ccc(Nc2ncc3cc(-c4c(Cl)cccc4Cl)c(=O)n(C)c3n2)cc1.[Br-] [Compound 142, 4-{[6-(2,6-dichlorophenyl)-8-methyl-7-oxo-7,8-dihydropyrido[2,3-d]pyrimidin-2-yl]amino}-1-[(1-methyl-4-nitro-1H-imidazol-5-yl)methyl]pyridinium bromide]
- H1975 HCR (H1975 cells; Table 7): <3 fold
- release of effector following 1-electron reduction [3]: did not release their respective effector compounds
- A431 HCR (A431 cells; Table 7): <6 fold
- HT29 HCR (HT29 cells): 1 fold

- pIC50 (H1975 cells; [15]): 4.75
- pIC50 (H1975 cells; [16]): 5.70
- Detection of MNA (methyl nitroaromatic) [3]: Yes
- % Loss of prodrug [3]: 69%
- E (1)/V (one-electron reduction potential) [1]: −0.465 V
- pIC50 (A431 cells; [14]): 6.00
- pIC50 (A431 cells; [6]): 4.37
- melting point: 176 to 178 °C
- pIC50 (HT29 cells; [17]): 5.11
- pIC50 (HT29 cells; [18]): 5.82
SMILES: Cn1cnc([N+](=O)[O-])c1C[N+]1(CCOc2ccc(Nc3ncc4cc(-c5c(Cl)cccc5Cl)c(=O)n(C)c4n3)cc2)CCCCC1.[Br-] [Compound 143, 1-[2-(4-{[6-(2,6-dichlorophenyl)-8-methyl-7-oxo-7,8-dihydropyrido[2,3-d]pyrimidin-2-yl]amino}phenoxy)ethyl]-1-[(1-methyl-4-nitro-1H-imidazol-5-yl)methyl]piperidinium bromide]
- H1975 HCR (H1975 cells; Table 7): 9 fold
- release of effector following 1-electron reduction [3]: released their respective effector compounds
- kfrag. (fragmentation rate constant upon 1-electron reduction) [1]: 170 ± 20 s⁻¹
- A431 HCR (A431 cells; Table 7): 43 fold
- HT29 HCR (HT29 cells): 5 fold

- pIC50 (erbB4): 6.95
- pIC50 (erbB2): 7.13
- pIC50 (SKBR3 cells; [4]): 5.50
- pIC50 (SKBR3 cells; [5]): 5.26
- pIC50 (A431 cells; [6]): 5.90
- pIC50 (A431 cells; [7]): 5.89
- melting point: 180 to 182 °C
- pIC50 (SW620 cells; [8]): 4.73
- pIC50 (SW620 cells; [9]): 4.71
SMILES: CN(C)CCCC(=O)Nc1ccc2ncnc(Nc3cccc(Br)c3)c2c1 [Compound 16, N-[4-(3-bromoanilino)-6-quinazolinyl]-4-(dimethylamino)butanamide]
- SKBR3 HCR (SKBR3 cells): 0.6 fold
- SW620 HCR (SW620 cells): 0.9 fold

- pIC50 (H1975 cells; [10]): 5.94
- pIC50 (H1975 cells; [11]): 5.95
- pIC50 (erbB1): 8.10
- pIC50 (SKOV3 cells; [12]): 6.26
- pIC50 (SKOV3 cells; [13]): 6.13
- pIC50 (A431 cells; [14]): 7.77
- pIC50 (A431 cells; [6]): 7.57
- melting point: 163 to 166 °C
SMILES: C#Cc1cccc(Nc2ncnc3cnc(NC(=O)/C=C/CN(C)C)cc23)c1 [Compound 171, (2E)-4-(dimethylamino)-N-[4-(3-ethynylanilino)pyrido[3,4-d]pyrimidin-6-yl]-2-butenamide]
- H1975 HCR (H1975 cells; Table 9): 1.1 fold
- SKOV3 HCR (SKOV3 cells): 0.8 fold
- A431 HCR (A431 cells; Table 9): 1.7 fold
